Reference: PMC8753592, “Long-acting capsid inhibitor protects macaques from repeat SHIV challenges” (Nature, 2021)
pEC50, pKd: −log10 of the molar value. Values joined by “and” are separate entries in the source; they are usually repeats but may differ in a detail not shown here. Equal values may be shown once. Read-outs that look alike come from different tables or passages of the source.

What was measured:
SHIV-SF162P3 = assay: microbe, parasite or virus in culture; assay type: cell-based, SHIV (in rhesus macaque, Macaca mulatta, PBMCs)
Description: Freshly isolated PBMCs from three male rhesus macaque (M. mulatta) donors of Indian origin (HumanCells Biosciences) were cultured in RPMI-1640 cell culture medium (Life Technologies) supplemented with 10% heat-inactivated FBS (Hyclone), 2 mM glutamine and 100 U ml^−1 penicillin plus 100 μg ml^−1 streptomycin (complete RPMI). Before their use in the antiviral assays, rhesus PBMCs from three independent donors were pooled and activated at a density of 3 × 10^6 cells per ml for 72 h at 37 °C by the addition of 1 μg ml^–1 phytohemagglutinin (PHA, Sigma-Aldrich) and 50 U ml^−1 recombinant human interleukin-2 (IL-2) (Roche Diagnostics).
PHA/IL-2-stimulated rhesus PBMCs were infected in bulk culture with SHIV-SF162P3 at a concentration of 130 pg of p27 equivalent per million PBMCs. The cells were maintained in suspension by gently rocking the cultures mixed with virus inoculum for 3 h at 37 °C. The cells were then pelleted by centrifugation at 500g for 5 min, washed twice with complete RPMI to remove any unadsorbed virus and seeded into 96-well plates at a cell density of 2 × 10^5 cells per well in 100 μl. […] The cultures were incubated in a 5% CO2 incubator at 37 °C for 7 days. Cell-free supernatants derived from the PBMC cultures were harvested 7 days after infection, the amount of SHIV present was quantified using an SIV p27 antigen-capture ELISA assay (5436, Advanced Bioscience Laboratories) performed according to the manufacturer’s protocol, and the data were acquired using SoftMax Pro 6.3.1 software (Molecular Devices).

CA mutant M66I = details: ref Link et al, Nature, 2020;[16]; cited from earlier work
[1] = in vivo, sc; cited from earlier work
CA monomer = details: ref Link et al, Nature, 2020;[16]; read-out: Binding Affinity (KD), CA monomer; cited from earlier work
HIV-1 isolates = details: ref Link et al, Nature, 2020;[16]; read-out: EC50, human PBMCs, HIV-1 isolates; cited from earlier work
[2] = molecular target: CA precursor (Gag polyprotein); details: ref Link et al, Nature, 2020;[16]; read-out: Binding Affinity (KD), CA precursor (Gag polyprotein); cited from earlier work
[3] = ref Link et al, Nature, 2020;[16]; cited from earlier work
CA hexamer = details: ref Link et al, Nature, 2020;[16]; read-out: Binding Affinity (KD), CA hexamer; cited from earlier work
HIV-1 = details: cited from earlier work; for average LEN plasma concentration as multiple of human paEC95: 9 days after dose administration
[4] = ref Link et al, Nature, 2020;[16]; cited from earlier work; remark: listed apart in the source
CA mutant N74D = details: ref Link et al, Nature, 2020;[16]; cited from earlier work
CA mutant L56I = details: ref Link et al, Nature, 2020;[16]; cited from earlier work
CA pentamer = details: ref Link et al, Nature, 2020;[16]; read-out: Binding Affinity (KD), CA pentamer; cited from earlier work
HIV capsid = details: ref Link et al, Nature, 2020;[16]; cited from earlier work
[5] = ref Link et al, Nature, 2020;[16], cited from earlier work
[6] = single experiments n1–n7, SIV p27 ELISA day 7, read-out: SHIV162P3-rhPBMC-EC50, individual experiments

O=C(NCc1c(F)cc(F)cc1F)c1cn2c(c(O)c1=O)C(=O)N1[C@H]3CC[C@H](C3)O[C@@H]1C2 [BIC, reference compound]
pEC50 (SHIV-SF162P3; mean of 7 assays, SIV p27 ELISA day 7 post-infection, read-out: EC50, rhesus PBMCs, SHIV-SF162P3): 8.87
pEC50 (SHIV-SF162P3; [6]): 9.11 and 9.05 and 8.75 and 8.73 and 9.26 and 8.90 and 8.65

CC(C)(C#Cc1ccc(-c2ccc(Cl)c3c(NS(C)(=O)=O)nn(CC(F)(F)F)c23)c([C@H](Cc2cc(F)cc(F)c2)NC(=O)Cn2nc(C(F)(F)F)c3c2C(F)(F)[C@@H]2C[C@H]32)n1)S(C)(=O)=O [LEN, Lenacapavir, reference compound]
In vitro fold-resistance (CA mutant/wild-type), M66I (CA mutant M66I): >3,200
duration of mean exposure of more than six times human paEC95 [1]: at least 6 months
pKd (CA monomer): 8.60
pEC50 (HIV-1 isolates): 10.30
pKd [2]: 8.96
Predicted Hepatic Clearance, rate, primary human hepatocytes [3]: 0.01 L/h/kg
pKd (CA hexamer): 9.62
average LEN plasma concentration as multiple of human paEC95 (HIV-1; 20 mg dose): 0.7 times the human paEC95
average LEN plasma concentration as multiple of human paEC95 (HIV-1; 50 mg dose): 1.1 times the human paEC95
participants with capsid mutation Q67H detected (HIV-1; long-acting LEN monotherapy, phase 1b): 2 of 29
maximum decline in HIV-1 RNA (HIV-1; long-acting formulation, after 9 days of monotherapy): 2.3 log10
T1/2, human cryopreserved hepatocytes [4]: 202 h
In vitro fold-resistance (CA mutant/wild-type), N74D (CA mutant N74D): 22
In vitro fold-resistance (CA mutant/wild-type), L56I (CA mutant L56I): 239
pKd (CA pentamer): 9.66
Inhibits nuclear import (early-stage) (HIV capsid): Yes
Inhibits proper capsid assembly (late-stage) (HIV capsid): Yes
Inhibits virus production (late-stage) (HIV capsid): Yes
pEC50 (SHIV-SF162P3; Simian immunodeficiency virus, PBMC, in Macaca mulatta, 168 h, read-out: EC50, rhesus PBMCs, SHIV-SF162P3, mean of 7 assays, SIV p27 ELISA day 7 post-infection): 9.41
pEC50 (SHIV-SF162P3; read-out: SHIV162P3-rhPBMC-EC50, individual experiments, single experiments n1–n7, SIV p27 ELISA day 7): 9.43 and 9.59 and 9.31 and 9.57 and 9.16 and 9.37
pEC50 (SHIV-SF162P3; [6]): 9.64
Kinetic solubility at pH 2.0 ([5]; pH 2.0): <1, <1 μM
Kinetic solubility at pH 7.4 ([5]; pH 7.4): <1, <1 μM
